Results as given in patent publication US12383531B2, “PLA2 inhibitors for treatment of pathological conditions caused by hymenoptera envenomation, such as hemolysis, cerebral edema, and acute kidney injury” (Ophirex, Inc., priority 2016, dated 2025).
pIC50: −log10 of the molar value. “Also recorded” adds a separate entry of the source.

What was measured:
[1] = system: A. contortrix venom sPLA2; test: sPLA2 chromogenic inhibition assay, A. contortrix venom; assay type: biochemical; conditions: chromogenic sPLA2 assay after 60 of incubation, read-out: IC50 for each venom inhibitor
V. berus venom sPLA2 = test: sPLA2 chromogenic inhibition assay, V. berus venom; assay type: biochemical; conditions: chromogenic sPLA2 assay after 60 of incubation, read-out: IC50 for each venom inhibitor
[2] = system: C. terrificus venom sPLA2; test: sPLA2 chromogenic inhibition assay, C. terrificus venom; assay type: biochemical; conditions: chromogenic sPLA2 assay after 60 of incubation, read-out: IC50 for each venom inhibitor
bee venom sPLA2 [3] = molecular target: T1, bee venom sPLA2 (Apis mellifera, UniProt P00630); test: biochemical; assay type: biochemical
[4] = system: venous human blood incubated with Boomslang (Dispholidus typus) venom; test: Hemolysis of ex vivo human blood treated with Boomslang venom (FIG. 5B); assay type: cell-based; conditions: Compound 4 1 uM with or without soluble simvastatin 1 uM, 90 minutes
[5] = system: histamine production or release in human blood; test: Plasma histamine in human blood; assay type: cell-based; conditions: human blood from a donor prone to LRR; 10 uM
Description: In this example, 3 cc human blood from a donor prone to LRR was collected and shipped to Quest on ice pursuant to Quest collection protocol 36586 and incubated with (a) Mannitol+Compound 4 (10 uM), (b) Varespladib (10 uM), or (c) Mannitol alone (excipient). Samples were processed for plasma histamine levels, compared with the Mannitol-only control.

[6] = system: boomslang venom or bee venom; test: Venom-induced acute kidney injury in mice, boomslang venom or bee venom (FIG. 7); assay type: in vivo, mouse; conditions: sublethal envenomation; single dose at same time as venom; 24 hours
C. atrox venom MP = C. atrox venom MP inhibition; assay type: biochemical; conditions: 10 μM
E. carinatus venom MP = E. carinatus venom MP inhibition; assay type: biochemical; conditions: 10 μM
[7] = system: Snake venom metalloprotease, C. atrox and E. carinatus; test: Snake venom metalloprotease inhibition for C. atrox and E. carinatus; assay type: biochemical; conditions: 10 μM; range over both venoms
M. fulvius venom sPLA2 = M. fulvius venom sPLA2 inhibition; assay type: biochemical; conditions: 10 μM
C. atrox venom sPLA2 = test: sPLA2 chromogenic inhibition assay, C. atrox venom; assay type: biochemical; conditions: chromogenic sPLA2 assay after 60 of incubation, read-out: IC50 for each venom inhibitor
[8] = system: C. adamanteus venom sPLA2; test: sPLA2 chromogenic inhibition assay, C. adamanteus venom; assay type: biochemical; conditions: chromogenic sPLA2 assay after 60 of incubation, read-out: IC50 for each venom inhibitor
V. russelli venom sPLA2 = test: sPLA2 chromogenic inhibition assay, V. russelli venom; assay type: biochemical; conditions: chromogenic sPLA2 assay after 60 of incubation, read-out: IC50 for each venom inhibitor
bee venom sPLA2 [9] = molecular target: T1, bee venom sPLA2; conditions: cited from earlier work
bee venom = test: Survival of mice envenomated with bee venom; assay type: in vivo, CD-1 mice; conditions: 5 mice; bee venom 5 mg/kg IV; 25 mg/kg varespladib SQ immediately after envenomation
[10] = system: venous human blood incubated with M. Fulvius venom; test: Hemolysis of ex vivo whole human blood treated with M. Fulvius venom (FIG. 5A); assay type: cell-based; conditions: inhibitor 1 uM with or without soluble simvastatin 1 uM, 90 minutes
[11] = system: whole bee (Apis mellifera) venom; test: Acute kidney injury in mice after whole bee venom (FIG. 8); assay type: in vivo, mouse; conditions: single dose Varespladib (LY315920) with bee venom, then oral methylvarespladib (LY333013) ad libitum in diet; kidneys examined 36 hours

T1 sequence (P00630 34-167 limits assumed): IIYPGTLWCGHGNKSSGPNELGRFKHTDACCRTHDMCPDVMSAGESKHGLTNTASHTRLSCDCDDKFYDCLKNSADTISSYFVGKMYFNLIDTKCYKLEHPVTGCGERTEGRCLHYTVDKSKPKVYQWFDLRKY

Row | Compound | pIC50 [1] | pIC50 (V. berus venom sPLA2) | inhibitory activity in vitro against bee venom sPLA2 (bee venom sPLA2 [3]) | C. atrox venom MP inhibition % effect (C. atrox venom MP) | E. carinatus venom MP inhibition % effect (E. carinatus venom MP) | Snake venom metalloprotease inhibition for C. atrox and E. carinatus [7] | M. fulvius venom sPLA2 inhibition % effect (M. fulvius venom sPLA2) | also measured
1 | NC(=O)c1ccc(Cc2ccccc2)cc1-c1cccc(CCC(=O)O)c1 [Compound 4, 3-(5′-Benzyl-2′-carbamoylbiphenyl-3-yl) propanoic acid] | 7.06 | 6.77 | very weak inhibitory activity; also recorded: virtually no effect |  |  |  |  | pIC50 [2]: 6.17; pIC50 (bee venom sPLA2 [3]): < 4.15; anti-hemolytic activity [4]: anti-hemolytic activity; Plasma Histamine [5]: 10.1 ng/mL; signs of acute kidney injury (gross kidney appearance) [6]: comparably minimal signs of acute kidney injury
2 | O=C(O)C[C@H](O)C[C@H](O)/C=C/c1c(C2CC2)nc2ccccc2c1-c1ccc(F)cc1 [ITAVASTATIN, Pitavastatin] |  |  |  | 5.09% | 0.48% | 0.48 to 5.09% |  | 
3 | CC[C@H](C)C(=O)O[C@H]1C[C@@H](C)C=C2C=C[C@H](C)[C@H](CC[C@@H]3C[C@@H](O)CC(=O)O3)[C@H]21 [LOVASTATIN, Lovastatin] |  |  |  |  | −1.89% |  | 11.09% | 
4 | CC[C@H](C)C(=O)O[C@H]1CCC=C2C=C[C@H](C)[C@H](CC[C@@H]3C[C@@H](O)CC(=O)O3)[C@H]21 [MEVASTATIN, Mevastatin] |  |  |  | 7.17% | −1.89 to 3.82% | −1.89 to 7.17% | 16.29% | 
5 | CCc1c(C(=O)C(N)=O)c2c(OCC(=O)OC)cccc2n1Cc1ccccc1 [Me-Varespladib] | 6.37 | 6.77 | very weak inhibitory activity; also recorded: not potent inhibitors |  |  |  |  | pIC50 (C. atrox venom sPLA2): 6.70; pIC50 [8]: 6.44; pIC50 (V. russelli venom sPLA2): 7.10; performance in vitro against bee venom sPLA2 in earlier studies (bee venom sPLA2 [9]): performed extremely poorly
6 | CC[C@H](C)C(=O)O[C@H]1C[C@H](O)C=C2C=C[C@H](C)[C@H](CC[C@@H](O)C[C@@H](O)CC(=O)O)[C@H]21 [PRAVASTATIN, Pravastatin] |  |  |  | 2.27% | 4.02% | 2.27 to 4.02% | 6.9% | 
7 | CCC(C)(C)C(=O)O[C@H]1C[C@@H](C)C=C2C=C[C@H](C)[C@H](CC[C@@H]3C[C@@H](O)CC(=O)O3)[C@H]21 [SIMVASTATIN, Simvastatin] |  |  |  | 4.03% | −0.20 to 4.61% | −0.20 to 4.61% | 16.41% | 
8 | CCc1c(C(=O)C(N)=O)c2c(OCC(=O)O)cccc2n1Cc1ccccc1 [Varespladib, ((3-(2-Amino-1,2-dioxoethyl)-2-ethyl-1-(phenylmethyl)-1H-indol-4-yl)oxy)acetic acid] | 9.05 | 9.10 | very weak inhibitory activity; also recorded: not potent inhibitors |  |  |  |  | pIC50 (C. atrox venom sPLA2): 9.15; pIC50 [8]: 9.10; pIC50 (V. russelli venom sPLA2): 9.40; pIC50 [2]: 7.68; pIC50 (bee venom sPLA2 [3]): 4.74 to 4.92; higher IC50 against bee venom PLA2 as compared to snake venom PLA2 (bee venom sPLA2 [3]): 5-45,000 fold; survival compared to controls (bee venom): uniformly prolonged survival; anti-hemolytic activity (Hgb absorption spectra) [10]: remained unchanged with the addition of statin; Plasma Histamine [5]: 5.1 ng/mL; signs of acute kidney injury (gross kidney appearance) [6]: minimal signs of acute kidney injury; protection from AKI (pigment nephropathy, hyperemia) [11]: excellent protection from AKI; performance in vitro against bee venom sPLA2 in earlier studies (bee venom sPLA2 [9]): performed extremely poorly
